Test results from paper PMC8744835, “Sterically Hindered Quaternary Phosphonium Salts (QPSs): Antimicrobial Activity and Hemolytic and Cytotoxic Properties” (International Journal of Molecular Sciences, 2021).

What was measured:
[1] = test system: Candida albicans ATCC 10231; assay: Fungicidal activity, serial dilution technique; format: cell-based; details: average of three ± SD, - means non-active; for MIC / MBC: Candida albicans, ATCC10231, Ca; for MIC: read-out: Minimum Inhibitory Concentration (MIC), Ca; for MBC: read-out: Minimum Bactericidal and Fungicidal Concentration (MBC, MFC), Ca
Procedure: (§1) The synthesized compounds were tested for antimicrobial activity against a number of Gram-positive bacteria, Staphylococcus aureus (Sa), Bacillus cereus (Bc) and Enterococcus faecalis (Ef), and Gram-negative bacteria, Escherichia coli (Ec) and Pseudomonas aeruginosa (Pa), including the methicillin-resistant strains S. aureus MRSA-1 (resistant to fluoroquinolones and beta-lactams) and MRSA-2 (resistant to beta-lactams). The methicillin-resistant strains S. aureus were transferred by the Republican Clinical Hospital of the Republic of Tatarstan (Kazan). The fungicidal activity against Candida albicans (Ca) and Trichophyton mentagrophytes var. gypseum (Tm) was studied. These pathogens were chosen because they are the most widespread in the food industry and the healthcare system.
(§2) The antimicrobial activity of the QPSs was determined using the serial dilution technique in Mueller–Hinton Broth 2. The cultures used for testing included the Gram-positive bacteria Staphylococcus aureus ATCC 6538P FDA 209P, Enterococcus faecalis ATCC 2921 and Bacillus cereus ATCC 10702 NCTC 8035, the Gram-negative bacteria Escherichia coli ATCC 25922 and Pseudomonas aeruginosa ATCC 9027, and the fungi Trichophyton mentagrophytes var. gypseum 1773 and Candida albicans ATCC 10231; methicillin-resistant strains of S. aureus MRSA were obtained from hospital patients with chronic tonsillitis (MRSA-1) and sinusitis (MRSA-2) in the Republican Clinical Hospital (Kazan, Russia). Ciprofloxacin and ketoconazole were purchased from Sigma-Aldrich. The bacterial load was 3.0 × 10^5 cfu/mL. The results were recorded every 24 h for 5 days. The cultures were incubated at 37 °C. The experiment was repeated three times. […] The minimum inhibitory concentration (MIC) was defined as the minimum concentration of a compound that inhibits the growth of the corresponding test micro-organism. The growth of bacteria as well as the absence of growth due to the bacteriostatic action of a compound was recorded.

[2] = test system: Trichophyton mentagrophytes var. gypseum 1773; assay: Fungicidal activity, serial dilution technique; format: cell-based; details: Tm, average of three ± SD, - means non-active; for MBC / MIC: Trichophyton mentagrophytes; for MBC: read-out: Minimum Bactericidal and Fungicidal Concentration (MBC, MFC), Tm; for MIC: read-out: Minimum Inhibitory Concentration (MIC), Tm
Procedure: as §1, §2

[3] = test system: Enterococcus faecalis ATCC 2921; assay: Antimicrobial activity, serial dilution technique in Mueller–Hinton Broth 2; format: cell-based; details: average of three ± SD, - means non-active; for MIC: read-out: Minimum Inhibitory Concentration (MIC), Ef
Procedure: as §1
as §2, with “Ciprofloxacin and ketoconazole were purchased from Sigma-Aldrich.” left out

[4] = test system: Staphylococcus aureus ATCC 6538P FDA 209P; assay: as above; format: cell-based; details: average of three ± SD, - means non-active; for MBC / MIC: Staphylococcus aureus, Sa; for MBC: read-out: Minimum Bactericidal and Fungicidal Concentration (MBC, MFC), Sa; for MIC: read-out: Minimum Inhibitory Concentration (MIC), Sa
Procedure: as §1
as §2, with “Ciprofloxacin and ketoconazole were purchased from Sigma-Aldrich.” left out

[5] = test system: Bacillus cereus ATCC 10702 NCTC 8035; assay: as above; format: cell-based; details: average of three ± SD, - means non-active; for MBC: read-out: Minimum Bactericidal and Fungicidal Concentration (MBC, MFC), Bc
Procedure: as §1
as §2, with “Ciprofloxacin and ketoconazole were purchased from Sigma-Aldrich.” left out

[6] = test system: Pseudomonas aeruginosa ATCC 9027; assay: as above; format: cell-based; details: average of three ± SD, - means non-active; for MBC / MIC: Pseudomonas aeruginosa, ATCC9027, Pa; for MBC: read-out: Minimum Bactericidal and Fungicidal Concentration (MBC, MFC), Pa; for MIC: read-out: Minimum Inhibitory Concentration (MIC), Pa
Procedure: as §1
as §2, with “Ciprofloxacin and ketoconazole were purchased from Sigma-Aldrich.” left out

[7] = test system: Escherichia coli ATCC 25922; assay: as above; format: cell-based; details: average of three ± SD, - means non-active; for MIC: Escherichia coli, ATCC25922, Ec, read-out: Minimum Inhibitory Concentration (MIC), Ec
Procedure: as §1
as §2, with “Ciprofloxacin and ketoconazole were purchased from Sigma-Aldrich.” left out

[8] = test system: methicillin-resistant S. aureus MRSA-1; assay: as above; format: cell-based, Staphylococcus aureus; details: - means non-active; for MIC / Minimum Inhibitory Concentration (MIC), MRSA-1: MRSA-1 (resistant to fluoroquinolones and beta-lactams); for MIC: read-out: Minimum Inhibitory Concentration (MIC), MRSA-1
Procedure: as §1
as §2, with “Ciprofloxacin and ketoconazole were purchased from Sigma-Aldrich.” left out

[9] = test system: methicillin-resistant S. aureus MRSA-2; assay: as above; format: cell-based, Staphylococcus aureus; details: - means non-active; for MBC / Minimum Bactericidal and Fungicidal Concentration (MBC, MFC), MRSA-2: MRSA-2; for MBC: read-out: Minimum Bactericidal and Fungicidal Concentration (MBC, MFC), MRSA-2
Procedure: as §1
as §2, with “Ciprofloxacin and ketoconazole were purchased from Sigma-Aldrich.” left out

[10] = test system: Escherichia coli ATCC 25922; assay: as above; format: cell-based; details: average of three ± SD, - means non-active; for MBC: Escherichia coli, ATCC25922, Ec, read-out: Minimum Bactericidal and Fungicidal Concentration (MBC, MFC), Ec
[11] = Enterococcus faecalis, ATCC2921, Ef
[12] = MRSA-2 (resistant to beta-lactams)

| Structure (SMILES) | Minimum Bactericidal and Fungicidal Concentration (MBC, MFC), Ca [1] [mg/L] | Minimum Bactericidal and Fungicidal Concentration (MBC, MFC), Ef [3] [mg/L] | MBC [4] [mg/L] | MBC ([5]; Bacillus cereus, Bc) [mg/L] | MBC [6] [mg/L] | Minimum Inhibitory Concentration (MIC), Ec [7] [mg/L] | MBC [10] [mg/L] | Minimum Inhibitory Concentration (MIC), Ef [3] [mg/L] | Minimum Inhibitory Concentration (MIC), Sa [4] [mg/L] | Minimum Inhibitory Concentration (MIC), Bc [5] [mg/L] | Minimum Inhibitory Concentration (MIC), MRSA-1 [8] [mg/L] | Minimum Bactericidal and Fungicidal Concentration (MBC, MFC), MRSA-1 ([8]; MRSA-1) [mg/L] | Minimum Inhibitory Concentration (MIC), MRSA-2 [9, 12] [mg/L] | Minimum Bactericidal and Fungicidal Concentration (MBC, MFC), MRSA-2 [9] [mg/L] | Minimum Inhibitory Concentration (MIC), Ca [1] [mg/L] | Minimum Bactericidal and Fungicidal Concentration (MBC, MFC), Tm [2] [mg/L] | Minimum Inhibitory Concentration (MIC), Tm [2] [mg/L] | Minimum Bactericidal and Fungicidal Concentration (MBC, MFC), Sa [4] [mg/L] | Minimum Inhibitory Concentration (MIC), Pa [6] [mg/L] | Minimum Bactericidal and Fungicidal Concentration (MBC, MFC), Ec [10] [mg/L] | further results |
| --- | --- | --- | --- | --- | --- | --- | --- | --- | --- | --- | --- | --- | --- | --- | --- | --- | --- | --- | --- | --- | --- |
| CCCCCCCCCCCCCCC[P+](C(C)(C)C)(C(C)(C)C)C(C)(C)C [Compound 15a] | 3.9 ± 0.2 | 1.9 ± 0.1 | 0.5 ± 0.03 | 15.6 ± 1.3 | 7.8 ± 0.6 | 1.9 ± 0.1 | 3.9 ± 0.2 |  |  |  |  |  |  |  |  |  |  |  |  |  | MIC [1]: 1.9 ± 0.1 mg/L; MBC [2]: 62.5 ± 5.7 mg/L; MIC [2]: 62.5 ± 5.3 mg/L; MIC [3, 11]: 0.5 ± 0.03 mg/L; MIC [4]: 0.2 ± 0.01 mg/L; MIC ([5]; Bacillus cereus, Bc, read-out: Minimum Inhibitory Concentration (MIC), Bc): 0.5 ± 0.03 mg/L; MIC [6]: 7.8 ± 0.7 mg/L; MIC ([8]; Staphylococcus aureus, MRSA): 0.5 ± 0.02 mg/L; MBC ([8]; Staphylococcus aureus, MRSA, MRSA-1, read-out: Minimum Bactericidal and Fungicidal Concentration (MBC, MFC), MRSA-1): 0.5 ± 0.04 mg/L; MIC ([9]; Staphylococcus aureus, MRSA, MRSA-2 (resistant to beta-lactams), read-out: Minimum Inhibitory Concentration (MIC), MRSA-2): 0.5 ± 0.04 mg/L; MBC ([9]; Staphylococcus aureus, MRSA): 0.5 ± 0.03 mg/L |
| CCCCCCCCCCCCCCCCC[P+](C(C)(C)C)(C(C)(C)C)C(C)(C)C [Compound 17a] |  | 1.9 ± 0.1 | 0.5 ± 0.03 | 15.6 ± 1.2 | 7.8 ± 0.7 |  | 15.6 ± 1.3 | 1.9 ± 0.1 | 0.2 ± 0.01 | 0.9 ± 0.07 | 0.9 ± 0.06 | 0.9 ± 0.07 | 0.9 ± 0.07 | 0.9 ± 0.06 |  |  |  |  |  |  | MBC [1]: 3.9 ± 0.2 mg/L; MIC [1]: 1.9 ± 0.1 mg/L; MBC [2]: 125 ± 10 mg/L; MIC [2]: 125 ± 10 mg/L; MIC [6]: 7.8 ± 0.5 mg/L; MIC [7]: 15.6 ± 1.2 mg/L |
| CCCCCCCCCCCCCC[P+](C(C)(C)C)(C(C)(C)C)C(C)(C)C [Compound 14b] | 15.6 ± 1.2 | 1.9 ± 0.1 |  |  |  | 1.9 ± 0.1 |  | 0.9 ± 0.08 | 0.1 ± 0.008 | 0.9 ± 0.07 | 0.3 ± 0.01 | 0.5 ± 0.03 | 0.3 ± 0.02 | 0.5 ± 0.03 | 3.9 ± 0.3 | 15.6 ± 1.3 | 15.6 ± 1.3 | 1.9 ± 0.1 | 7.8 ± 0.6 | 3.9 ± 0.2 | Minimum Bactericidal and Fungicidal Concentration (MBC, MFC), Bc [5]: 15.6 ± 1.2 mg/L; Minimum Bactericidal and Fungicidal Concentration (MBC, MFC), Pa [6]: 62.5 ± 5.4 mg/L |
| CCCCCCCCCCCCCCCCCCCC[P+](C(C)(C)C)(C(C)(C)C)C(C)(C)C [Compound 20b] | 31.3 ± 2.1 | 15.6 ± 1.3 |  |  |  | 62.5 ± 5.7 |  | 7.8 ± 0.6 | 3.9 ± 0.2 | 62.5 ± 5.5 | 15.6 ± 1.3 | 15.6 ± 1.2 | 7.8 ± 0.6 | 7.8 ± 0.7 | 15.6 ± 1.3 | 250 ± 18 | 250 ± 18 | 3.9 ± 0.3 | 125 ± 11 | 62.5 ± 5.5 |  |
| CCCCCCCCCCCCCCCCCC[P+](C(C)(C)C)(C(C)(C)C)C(C)(C)C [Compound 18b] | 15.6 ± 1.2 | 3.9 ± 0.2 |  |  |  | 15.6 ± 1.3 |  | 1.9 ± 0.1 | 1.9 ± 0.1 | 31.3 ± 2.2 | 7.8 ± 0.6 | 15.6 ± 1.2 | 3.9 ± 0.2 | 3.9 ± 0.3 | 7.8 ± 0.7 | 250 ± 19 | 250 ± 19 | 3.9 ± 0.2 | 15.6 ± 1.3 | 62.5 ± 5.4 | Minimum Bactericidal and Fungicidal Concentration (MBC, MFC), Bc [5]: 125 ± 11 mg/L; Minimum Bactericidal and Fungicidal Concentration (MBC, MFC), Pa [6]: 31.3 ± 2.5 mg/L |
| CCCCCCCCCCCCCCCCCCCC[P+](C(C)(C)C)(C(C)(C)C)C(C)(C)C [Compound 20a] |  |  | 3.9 ± 0.2 | 31.3 ± 2.6 | 125 ± 11 |  | 62.5 ± 5.5 |  |  | 15.6 ± 1.3 |  | 31.3 ± 2.7 | 1.9 ± 0.1 |  | 31.3 ± 2.5 | 31.3 ± 2.5 | 31.3 ± 2.3 |  | 31.3 ± 2.4 |  | MBC [1]: 62.5 ± 5.7 mg/L; MBC ([3]; Enterococcus faecalis, ATCC2921, Ef, read-out: Minimum Bactericidal and Fungicidal Concentration (MBC, MFC), Ef): 7.8 ± 0.6 mg/L; MIC [3, 11]: 3.9 ± 0.2 mg/L; MIC [4]: 3.9 ± 0.2 mg/L; MIC [7]: 62.5 ± 5.5 mg/L; MIC ([8]; Staphylococcus aureus, MRSA): 7.8 ± 0.6 mg/L; MBC ([9]; Staphylococcus aureus, MRSA): 15.6 ± 1.2 mg/L |
